Reference: patent publication EP4610262A1, “MACROCYCLIC COMPOUND AS CDK9 INHIBITOR AND USE THEREOF” (Artivila Biopharma, priority 2022, dated 2024)

Experiments:
Assay in all cases: CDK kinase selectivity (HTRF / ADP-Glo)
Type in all cases: biochemical
[1] = biological target: CDK19/CycC (Homo sapiens, UniProt Q9BWU1); conditions: compound at 0.1 µM; read-out: Inhibition rate CDK19/CycC
Experimental: (§1) The selectivity of the test compounds against CDK kinases was detected. The compounds were tested at a concentration of 0.1 µM, and the inhibition rate of CDK kinases by the compounds was detected in duplicate wells, mainly using HTRF and ADP-Glo detection methods.
(§2) The HTRF detection method was conducted as follows: 2-fold ATP/substrate solution and 2-fold kinase/metal ion solution were prepared respectively with a kinase reaction buffer, and 25 nL of diluted compound solution was transferred to a 384-well detection plate with Echo 655. After centrifugation, the plate was added with 2.5 µL of 2-fold kinase/metal ion solution and incubated at 25°C for 10 minutes. After 10 minutes, 2.5 µL of 2-fold substrate/ATP solution was added to the 384-well detection plate and incubated at 25°C for 60 minutes. 2 kinase detection reagent (XL665 and antibody) was prepared with detection buffer, and 5 µL of kinase detection reagent was added to the 384-well detection plate and incubated at 25°C for 60 minutes. The fluorescence signals at 620 nm (Cryptate) and 665 nm (XL665) were read by the microplate reader, and the ratio and the inhibition rate of kinase activity by the compound were calculated.
(§3) The ADP-Glo detection method was conducted as follows. 2-fold ATP/substrate solution and 2-fold kinase/metal ion solution were prepared respectively with a kinase reaction buffer. 20 nL of diluted compound solution was transferred to a 384-well detection plate by Echo 655. After centrifuged, the 384-well detection plate was added with 2 µL of 2 × kinase/metal ion solution, and incubated at 25°C for 10 minutes. After 10 minutes, the 384-well detection plate was added with 2 µL of 2 × substrate/ATP solution and incubated at 25°C for 60 minutes. 4 µL of ADP-Glo reagent was added to each well and incubated at room temperature for 40 minutes. 10 µL of ADP detection reagent was added to each well and incubated at room temperature for 40 minutes. The chemiluminescent signal was detected with a microplate reader and the inhibition rate of kinase activity was calculated.

[2] = biological target: CDK9/CycT1 (Homo sapiens, UniProt P50750); conditions: compound at 0.1 µM; read-out: Inhibition rate CDK9/CycT1
Experimental: as §1, §2, §3

[3] = biological target: CDK6/CycD 1 (Homo sapiens, UniProt Q00534); conditions: compound at 0.1 µM; read-out: Inhibition rate CDK6/CycD 1
Experimental: as §1, §2, §3

[4] = biological target: CDK4/cycD1 (Homo sapiens, UniProt P11802); conditions: compound at 0.1 µM; read-out: Inhibition rate CDK4/cycD1
Experimental: as §1, §2, §3

[5] = biological target: CDK2/CyCA2 (Homo sapiens, UniProt P24941); conditions: compound at 0.1 µM; read-out: Inhibition rate CDK2/CyCA2
Experimental: as §1, §2, §3

[6] = biological target: CDK1/CycB1 (Homo sapiens, UniProt P06493); conditions: compound at 0.1 µM; read-out: Inhibition rate CDK1/CycB1
Experimental: as §1, §2, §3

[7] = biological target: CDK13/CyclinK (Homo sapiens, UniProt Q14004); conditions: compound at 0.1 µM; read-out: Inhibition rate CDK13/CyclinK
Experimental: as §1, §2, §3

[8] = biological target: CDK5/p25NCK (Homo sapiens, UniProt Q00535); conditions: compound at 0.1 µM; read-out: Inhibition rate CDK5/p25NCK
Experimental: as §1, §2, §3

[9] = biological target: CDK4/CycD3 (Homo sapiens, UniProt P11802); conditions: compound at 0.1 µM; read-out: Inhibition rate CDK4/CycD3
Experimental: as §1, §2, §3

[10] = biological target: CDK18/CyclinY (Homo sapiens, UniProt Q07002); conditions: compound at 0.1 µM; read-out: Inhibition rate CDK18/CyclinY
Experimental: as §1, §2, §3

[11] = biological target: CDK1/CycE1 (Homo sapiens, UniProt P06493); conditions: compound at 0.1 µM; read-out: Inhibition rate CDK1/CycE1
Experimental: as §1, §2, §3

[12] = biological target: CDK5/p35NCK (Homo sapiens, UniProt Q00535); conditions: compound at 0.1 µM; read-out: Inhibition rate CDK5/p35NCK
Experimental: as §1, §2, §3

[13] = biological target: CDK6/CycD3 (Homo sapiens, UniProt Q00534); conditions: compound at 0.1 µM; read-out: Inhibition rate CDK6/CycD3
Experimental: as §1, §2, §3

[14] = biological target: CDK1/CycA2 (Homo sapiens, UniProt P06493); conditions: compound at 0.1 µM; read-out: Inhibition rate CDK1/CycA2
Experimental: as §1, §2, §3

[15] = biological target: CDK2/CycE1 (Homo sapiens, UniProt P24941); conditions: compound at 0.1 µM; read-out: Inhibition rate CDK2/CycE1
Experimental: as §1, §2, §3

[16] = biological target: CDK12/CyclinK (Homo sapiens, UniProt Q9NYV4); conditions: compound at 0.1 µM; read-out: Inhibition rate CDK12/CyclinK
Experimental: as §1, §2, §3

[17] = biological target: CDK3/CycE1 (Homo sapiens, UniProt Q00526); conditions: compound at 0.1 µM; read-out: Inhibition rate CDK3/CycE1
Experimental: as §1, §2, §3

CDK9/CycT1, sequence (P50750 whole entry, species assumed): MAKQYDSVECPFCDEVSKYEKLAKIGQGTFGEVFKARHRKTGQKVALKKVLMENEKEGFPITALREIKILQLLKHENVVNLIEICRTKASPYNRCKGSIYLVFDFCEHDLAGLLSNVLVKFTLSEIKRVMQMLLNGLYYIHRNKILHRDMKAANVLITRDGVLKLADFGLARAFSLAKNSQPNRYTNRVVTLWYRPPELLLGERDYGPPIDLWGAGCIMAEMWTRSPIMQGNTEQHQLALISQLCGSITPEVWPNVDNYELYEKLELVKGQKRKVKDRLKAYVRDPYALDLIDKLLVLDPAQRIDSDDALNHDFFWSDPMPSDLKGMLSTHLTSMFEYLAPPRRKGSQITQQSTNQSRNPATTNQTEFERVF
CDK9/CycT1, sequence (O60563 whole entry partner, species assumed): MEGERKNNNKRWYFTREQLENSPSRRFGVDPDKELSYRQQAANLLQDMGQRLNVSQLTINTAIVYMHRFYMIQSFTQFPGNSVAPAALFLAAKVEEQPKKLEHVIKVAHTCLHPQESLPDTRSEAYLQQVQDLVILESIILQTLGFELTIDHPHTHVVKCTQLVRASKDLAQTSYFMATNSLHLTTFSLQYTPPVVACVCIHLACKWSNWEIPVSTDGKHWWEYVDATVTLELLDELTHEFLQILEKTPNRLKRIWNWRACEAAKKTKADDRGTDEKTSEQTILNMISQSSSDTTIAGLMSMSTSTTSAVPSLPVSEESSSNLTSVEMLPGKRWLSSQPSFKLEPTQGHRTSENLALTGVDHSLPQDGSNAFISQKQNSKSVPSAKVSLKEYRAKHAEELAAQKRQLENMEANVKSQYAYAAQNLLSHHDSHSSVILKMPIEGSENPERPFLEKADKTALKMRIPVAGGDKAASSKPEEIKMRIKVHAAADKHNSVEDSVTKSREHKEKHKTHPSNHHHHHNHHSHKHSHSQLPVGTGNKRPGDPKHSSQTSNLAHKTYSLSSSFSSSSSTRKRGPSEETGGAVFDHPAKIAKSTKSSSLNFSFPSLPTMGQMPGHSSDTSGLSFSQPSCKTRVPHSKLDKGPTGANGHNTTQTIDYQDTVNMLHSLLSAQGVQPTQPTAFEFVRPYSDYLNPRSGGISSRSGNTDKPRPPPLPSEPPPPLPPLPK
CDK18/CyclinY, sequence (Q07002 whole entry): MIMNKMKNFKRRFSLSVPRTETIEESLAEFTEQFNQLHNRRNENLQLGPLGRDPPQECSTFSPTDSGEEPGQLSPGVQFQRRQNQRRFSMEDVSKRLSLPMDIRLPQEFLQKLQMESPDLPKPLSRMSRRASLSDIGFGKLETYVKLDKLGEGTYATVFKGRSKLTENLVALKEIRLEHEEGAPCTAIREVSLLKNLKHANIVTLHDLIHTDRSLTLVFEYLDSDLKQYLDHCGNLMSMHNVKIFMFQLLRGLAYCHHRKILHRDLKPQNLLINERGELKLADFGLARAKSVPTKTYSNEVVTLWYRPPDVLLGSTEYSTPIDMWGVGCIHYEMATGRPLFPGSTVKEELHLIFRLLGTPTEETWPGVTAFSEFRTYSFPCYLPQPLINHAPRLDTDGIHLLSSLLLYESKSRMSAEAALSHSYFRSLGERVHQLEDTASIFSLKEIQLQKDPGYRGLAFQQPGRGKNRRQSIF
CDK18/CyclinY, sequence (Q8ND76 whole entry partner): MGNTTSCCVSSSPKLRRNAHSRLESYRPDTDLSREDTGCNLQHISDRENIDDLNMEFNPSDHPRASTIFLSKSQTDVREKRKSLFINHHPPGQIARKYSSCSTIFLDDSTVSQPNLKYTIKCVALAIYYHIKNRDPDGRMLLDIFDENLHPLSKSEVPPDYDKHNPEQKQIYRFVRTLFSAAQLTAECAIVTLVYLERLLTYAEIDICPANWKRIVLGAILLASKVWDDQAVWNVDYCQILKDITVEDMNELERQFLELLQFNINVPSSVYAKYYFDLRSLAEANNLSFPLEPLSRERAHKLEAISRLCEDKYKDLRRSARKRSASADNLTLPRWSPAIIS
CDK3/CycE1, sequence (P24864 whole entry): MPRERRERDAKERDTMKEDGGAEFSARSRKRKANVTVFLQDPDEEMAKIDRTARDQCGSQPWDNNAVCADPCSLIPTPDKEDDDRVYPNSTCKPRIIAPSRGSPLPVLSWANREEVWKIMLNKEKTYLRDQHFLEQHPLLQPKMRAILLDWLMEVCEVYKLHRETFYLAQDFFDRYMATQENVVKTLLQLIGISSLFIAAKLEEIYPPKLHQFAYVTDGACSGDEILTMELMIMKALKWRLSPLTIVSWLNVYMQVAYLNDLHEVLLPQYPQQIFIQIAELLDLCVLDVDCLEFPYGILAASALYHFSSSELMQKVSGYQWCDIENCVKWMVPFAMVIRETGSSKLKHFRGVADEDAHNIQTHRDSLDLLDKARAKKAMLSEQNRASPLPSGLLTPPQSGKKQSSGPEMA
CDK3/CycE1, sequence (Q00526 whole entry): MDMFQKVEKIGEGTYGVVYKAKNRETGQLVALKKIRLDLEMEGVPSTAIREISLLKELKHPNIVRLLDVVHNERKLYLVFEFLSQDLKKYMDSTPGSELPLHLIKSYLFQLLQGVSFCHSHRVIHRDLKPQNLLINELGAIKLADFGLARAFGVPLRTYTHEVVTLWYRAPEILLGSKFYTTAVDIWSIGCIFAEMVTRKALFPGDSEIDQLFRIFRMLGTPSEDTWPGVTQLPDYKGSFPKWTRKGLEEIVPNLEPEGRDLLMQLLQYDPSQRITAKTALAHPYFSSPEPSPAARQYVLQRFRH
CDK1/CycE1, sequence (P24864 whole entry): as the sequence (P24864 whole entry) above
CDK1/CycE1, sequence (P06493 whole entry): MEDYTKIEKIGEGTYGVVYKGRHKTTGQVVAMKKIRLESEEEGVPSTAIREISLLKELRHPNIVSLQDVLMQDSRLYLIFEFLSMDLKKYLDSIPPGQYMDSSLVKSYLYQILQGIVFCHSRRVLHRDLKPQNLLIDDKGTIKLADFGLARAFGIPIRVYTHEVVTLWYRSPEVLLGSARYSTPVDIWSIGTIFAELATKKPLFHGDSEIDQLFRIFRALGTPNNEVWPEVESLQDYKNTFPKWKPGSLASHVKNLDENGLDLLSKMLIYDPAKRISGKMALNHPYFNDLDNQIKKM
CDK6/CycD 1, sequence (Q00534 whole entry): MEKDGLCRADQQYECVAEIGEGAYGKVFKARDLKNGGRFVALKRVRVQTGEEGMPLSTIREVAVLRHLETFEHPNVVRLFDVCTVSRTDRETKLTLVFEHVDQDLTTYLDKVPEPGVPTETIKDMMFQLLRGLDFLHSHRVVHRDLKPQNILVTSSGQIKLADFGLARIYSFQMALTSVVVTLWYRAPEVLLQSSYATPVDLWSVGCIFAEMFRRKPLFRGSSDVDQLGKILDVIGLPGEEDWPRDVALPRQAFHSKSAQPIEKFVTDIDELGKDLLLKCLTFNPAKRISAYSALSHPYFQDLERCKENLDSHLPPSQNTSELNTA
CDK6/CycD 1, sequence (P24385 whole entry partner): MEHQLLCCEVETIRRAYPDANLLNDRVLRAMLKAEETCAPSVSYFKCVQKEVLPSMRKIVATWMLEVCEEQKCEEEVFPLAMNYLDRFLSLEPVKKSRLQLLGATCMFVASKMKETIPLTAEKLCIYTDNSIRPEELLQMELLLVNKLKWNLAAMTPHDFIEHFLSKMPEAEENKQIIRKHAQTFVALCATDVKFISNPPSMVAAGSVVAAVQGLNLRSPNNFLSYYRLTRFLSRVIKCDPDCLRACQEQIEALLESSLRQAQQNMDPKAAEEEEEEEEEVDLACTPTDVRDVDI
CDK6/CycD3, sequence (Q00534 whole entry, species assumed): as the sequence (Q00534 whole entry) above
CDK6/CycD3, sequence (P30281 whole entry partner, species assumed): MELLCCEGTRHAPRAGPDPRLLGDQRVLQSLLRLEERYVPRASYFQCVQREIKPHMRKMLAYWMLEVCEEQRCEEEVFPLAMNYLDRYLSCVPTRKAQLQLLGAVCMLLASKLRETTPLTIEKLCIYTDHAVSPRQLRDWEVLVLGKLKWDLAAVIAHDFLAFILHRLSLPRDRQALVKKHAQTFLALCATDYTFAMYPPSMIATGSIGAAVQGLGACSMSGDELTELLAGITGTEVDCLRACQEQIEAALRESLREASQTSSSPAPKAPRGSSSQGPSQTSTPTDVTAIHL
CDK19/CycC, sequence (Q9BWU1 whole entry): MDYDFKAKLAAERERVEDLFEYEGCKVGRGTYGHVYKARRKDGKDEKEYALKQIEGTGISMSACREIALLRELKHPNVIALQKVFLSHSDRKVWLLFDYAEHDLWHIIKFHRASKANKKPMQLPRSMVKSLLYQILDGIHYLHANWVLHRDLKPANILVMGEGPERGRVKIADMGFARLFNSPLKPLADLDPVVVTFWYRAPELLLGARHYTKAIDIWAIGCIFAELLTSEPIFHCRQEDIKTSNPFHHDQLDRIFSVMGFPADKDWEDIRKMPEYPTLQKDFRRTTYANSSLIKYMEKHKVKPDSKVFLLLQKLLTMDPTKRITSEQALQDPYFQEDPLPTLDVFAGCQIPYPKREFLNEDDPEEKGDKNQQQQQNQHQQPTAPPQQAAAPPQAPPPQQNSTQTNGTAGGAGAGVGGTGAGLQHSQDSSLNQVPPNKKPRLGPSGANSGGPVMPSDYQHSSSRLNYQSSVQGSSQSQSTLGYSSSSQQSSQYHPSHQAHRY
CDK19/CycC, sequence (P24863 whole entry partner): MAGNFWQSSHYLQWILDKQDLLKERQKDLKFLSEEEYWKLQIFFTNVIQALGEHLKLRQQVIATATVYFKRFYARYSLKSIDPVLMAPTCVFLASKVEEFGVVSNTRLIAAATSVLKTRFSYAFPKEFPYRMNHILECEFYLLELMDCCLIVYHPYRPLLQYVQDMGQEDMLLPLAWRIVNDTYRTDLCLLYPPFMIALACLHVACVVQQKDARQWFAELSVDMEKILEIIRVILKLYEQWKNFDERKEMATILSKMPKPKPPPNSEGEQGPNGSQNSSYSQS

In the case of `Clc1cnc2nc1NCCCCCNCc1cccc(c1)N2` [Compound 8, 1^5-chloro-2,5,11-triaza-1(2,4)-pyrimidina-3(1,3)-benzenacyclodecaphane], the inhibition at 0.1 µM [1] is reported as under 50%, the inhibition at 0.1 µM [2] is reported as over 95% and the inhibition at 0.1 µM [3] is reported as under 50%. The inhibition at 0.1 µM [4] was under 50%, the inhibition at 0.1 µM [5] was under 50% and the inhibition at 0.1 µM [6] was under 50%. It also gave an inhibition at 0.1 µM [7] of 50 to 75%, an inhibition at 0.1 µM [8] of 50 to 75% and an inhibition at 0.1 µM [9] of 50 to 75%. For the same compound, the inhibition at 0.1 µM [10] was under 50%, the inhibition at 0.1 µM [11] was under 50% and the inhibition at 0.1 µM [12] was under 50%. The inhibition at 0.1 µM [13] was under 50%, the inhibition at 0.1 µM [14] was under 50% and the inhibition at 0.1 µM [15] was 50 to 75%. It also gave an inhibition at 0.1 µM [16] of 50 to 75% and an inhibition at 0.1 µM [17] of 50 to 75%.
